EC50 data for 11 molecules are collected here from patent US12344610B2, “APOL1 inhibitors and methods of use” (Maze Therapeutics, Inc., priority 2022, dated 2025).

The assay concerns Trypanosoma brucei Lister 427 VSG221 with APOL1 G0 recombinant protein. Kind of assay: APOL1 G0 trypanosome cell rescue assay (Example B5). In kind it is cell-based. As to conditions: Trypanosoma brucei, 20 h, read-out: APOL1 G0 Trypanosome Rescue EC50, Trypanosoma brucei Lister 427 VSG221 with APOL1 G0 recombinant protein, 20 hours, CellTiter-Glo; geometric mean of at least 2 assay runs; † = single assay run. In short, it runs like this: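 Recombinant APOL1 protein, dispensed from a 2 μg/mL stock, and 250 T. brucei per well were co-incubated with test compound (0.4% DMSO) for 20 h. Viability: CellTiter-Glo luminescence.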

The EC50 is the concentration giving half of the maximal effect. As to `C[C@]1(O)C[C@@H](N2C(=O)Cc3cc(OCCN4CCC5(CC4)C(=O)Nc4ccc(C(F)F)cc45)cnc32)C1` [Compound 346, 5-(difluoromethyl)-1′-[2-({2-oxo-1-[(cis)-3-hydroxy-3-methylcyclobutyl]-1H,2H,3H-pyrrolo[2,3-b]pyridin-5-yl]oxy)ethyl]-1,2-dihydrospiro[indole-3,4′-piperidin]-2-one], the EC50 worked out at 83.6 nM.
With `CC(c1ncc(OCCN2CCC3(CC2)C(=O)Nc2ccc(Cl)cc23)cn1)S(C)(=O)=O` (centres unmarked) [Compound 1, 5-Chloro-1′-(2-{[2-(1-methanesulfonylethyl)pyrimidin-5-yl]oxy}ethyl)-1,2-dihydrospiro[indole-3,4′-piperidin]-2-one] the figure was 225 nM; with `CP(C)(=O)C1(c2ccc(OCCN3CCC4(CC3)C(=O)Nc3ccc(Cl)cc34)cc2)CC1` [Compound 343, 5-chloro-1′-(2-{4-[1-(dimethylphosphoryl)cyclopropyl]phenoxy}ethyl)-1,2-dihydrospiro[indole-3,4′-piperidin]-2-one], 174 nM.
As for `CCC1(O)CN(c2ncc(OCCN3CCC4(CC3)C(=O)Nc3ccc(Cl)cc34)cn2)C1` [Compound 397, 5-chloro-1′-(2-{[2-(3-ethyl-3-hydroxyazetidin-1-yl)pyrinlidin-5-yl]oxy}ethyl)-1,2-dihydrospiro[indole-3,4′-piperidin]-2-one], the figure is 226 nM.
For `CC(c1ccc(OCCN2CCC3(CC2)C(=O)Nc2ccc(Cl)cc23)cc1)S(C)(=O)=O` (single isomer, unassigned) [Compound 39, 5-chloro-1′-(2-{4-[(1S) or (1R)-1-methanesulfonylethyl]phenoxy}ethyl)-1,2-dihydrospiro[indole-3,4′-piperidin]-2-one], the EC50 was determined as 156 nM.
As for `C[C@]1(O)C[C@@H](n2c(=O)ccc3cc(OCCN4CCC5(CC4)C(=O)Nc4ccc(OC(F)F)cc45)cnc32)C1` [Compound 328, 5-(difluoromethoxy)-1′-[2-({7-oxo-8-[(cis)-3-hydroxy-3-methylcyclobutyl]-7,8-dihydro-1,8-naphthyridin-3-yl}oxy)ethyl]-1,2-dihydrospiro[indole-3,4′-piperidin]-2-one], the figure is 79.9 nM; as for `C[C@]1(O)C[C@H](n2ncc3cc(OCCN4CCC5(CC4)C(=O)Nc4ccc(Cl)cc45)cnc32)C1` (single isomer, unassigned) [Compound 408, 5-chloro-1′-[2-({1-[(trans)-3-hydroxy-3-methylcyclobutyl]-1H-pyrazolo[3,4-b]pyridin-5-yl}oxy)ethyl]-1,2-dihydrospiro[indole-3,4′-piperidin]-2-one], 84.8 nM.
With `C[C@]1(O)C[C@@H](N2C(=O)C3(CC3)c3cc(OCCN4CCC5(CC4)C(=O)Nc4ccc(Cl)cc45)cnc32)C1` [Compound 460, 5-chloro-1′-(2-{2′-oxo-1′-[(cis)-3-hydroxy-3-methylcyclobutyl]-1′,2′-dihydrospiro[cyclopropane-1,3′-pyrrolo[2,3-b]pyridin]-5′-yloxy}ethyl)-1,2-dihydrospiro[indole-3,4′-piperidin]-2-one] the figure was 104 nM.
As to `C[C@]1(O)C[C@@H](n2nnc3cc(OCCN4CCC5(CC4)C(=O)Nc4ccc(C#N)cc45)cc(C(F)(F)F)c32)C1` [Compound 435, 2-oxo-1′-[2-({1-[(cis)-3-hydroxy-3-methylcyclobutyl]-7-(trifluoromethyl)-1H-1,2,3-benzotriazol-5-yl}oxy)ethyl]-1,2-dihydrospiro[indole-3,4′-piperidine]-5-carbonitrile], the EC50 stood at 27.1 nM.
As for `CS(=O)(=O)c1ccc(OCCN2CCC3(CC2)C(=O)Nc2ccc(Cl)cc23)cc1` [Compound 69, 5-chloro-1′-[2-(4-methanesulfonylphenoxy)ethyl]-1,2-dihydrospiro[indole-3,4′-piperidin]-2-one], the figure is 153 nM.
With `CC(C)[C@]1(O)C[C@@H](N2C(=O)CCc3cc(OCCN4CCC5(CC4)C(=O)Nc4ccc(Cl)cc45)cnc32)C1` [Compound 317, 5-chloro-1′-[2-({7-oxo-8-[(cis)-3-hydroxy-3-(propan-2-yl)cyclobutyl]-5,6,7,8-tetrahydro-1,8-naphthyridin-3-yl}oxy)ethyl]-1,2-dihydrospiro[indole-3,4′-piperidin]-2-one] the figure was 33 nM.
